Key:
E. coli [1] = test: Rapid AST/MIC by membrane fluorescence staining, SIR from IN Cell confocal imaging; assay type: cell-based; conditions: InCell measurement; SIR (610 nm/530 nm) vs antibiotic concentration, step function fit; 2-4 hours antibiotic exposure at 37° C.; Synaptogreen/FM 1-43 dye
Description: In general, the method includes blood culture centrifugation, bacterial antimicrobial exposure for 2 to 4 hours, bacteria staining with a single fluorescence dye followed by laser confocal microscopy, and mathematical analysis.
Sample Preparation—Macro Dilution Method • a) Antimicrobial (Gentamicin) stock solutions were prepared according to CLSI recommendations, and were diluted in CAMHB, to a concentration which was 2 fold higher from the highest concentration recommended for each antimicrobial combination (“Class II Special Controls Guidance Document: Antimicrobial Susceptibility Test (AST) Systems”, Aug. […] The images were taken through a green filter (530 nm) and red filter (615 nm) one after the other for each image. • i) images were analyzed using GE In Cell Investigator image analysis software. For each image the following operation were performed; segmentation for identifying the bacteria, for each bacteria the intensity in the green and […] were recorded, and a scatter plot of the bacteria population was plotted (x axis—intensity in the green, y axis—intensity in the red).
To quantify the influence of a certain antimicrobial exposure we define the spectral intensity ratio (SIR) as follows: […]
The MIC is calculated by plotting the spectral intensity ratio (SIR) as a function of the antimicrobial concentration and approximating it to a step function in the form of […]

E. coli [2] = test: MIC by SIR from flow cytometer measurement; assay type: cell-based; conditions: SIR vs antibiotic concentration
Description: The MIC is calculated by plotting the spectral intensity ratio (SIR) as a function of the antimicrobial concentration and approximating it to a step function in the form of
Where a, b, and c are parameters and erf is the error function. The parameters are used to approximate the measured SIR to a step function; a is a scaling parameter, b determines the step slope, and c is the MIC value, or a function of it. The SIR values are used to determine the erf parameters by a best fit approximation.
We measured E. coli exposed to gentamicin at 4 concentration. The MIC was calculated using the spectral intensity ratio (SIR) calculation and step function estimation using MATLAB software.
FIG. 3 provides plots showing the SIR as a function of the antibiotic concentration for the InCell measurement (top) and flow cytometer measurement (bottom). As can been seen from the graphs, their shapes are similar, although the InCell measurement has less data points, and the MIC is 0.5 μg/ml in both cases. Live bacteria population (0 μg/ml) have lower SIR then the dead ones (>0.5 μg/ml). At the MIC (0.5 ug/ml) there is a large increase in the SIR. […] The SIR then decreases at very high (>4 ug/ml) antibiotic concentrations.

Substance gentamicin has an MIC (E. coli [1]) of 0.5 µg/mL and an MIC (E. coli [2]) of 0.5 µg/mL.
